# Assay results published in patent US7888389B2 (The Regents of the University of Michigan, priority 2002, dated 2011).
# Values joined by “and” are separate entries in the source; they are usually repeats but may differ in a detail not shown here. Equal values may be shown once.
# Columns and labels:
# [1] = Storage stability of TM (bulk and capsules); type: physicochemical; details: room temperature
# From the text: TM and salts of TM are available; one of the preferred salts of TM is the ammonium salt. […] TM purchased from Aldrich Chemical Company (available in one kilogram bulk lots) is certified pure for human use. The bulk drug should be stored in the absence of oxygen, or the oxygen will gradually exchange with the sulfur, rendering the drug ineffective over time. The bulk drug is therefore stored under argon.
# TM was purchased in bulk lots suitable for human administration (Aldrich Chemical Company, Milwaukee, Wis.). […] At the time a prescription was written, the appropriate dose of TM was placed in gelatin capsules. […] Thus, TM was dispensed to each patient in eight-week installments throughout the trial.
# [2] = system: mammary tumors; test: Mammary tumor development in HER2-neu transgenic mice
# [3] = late stages of liver disease; cited from earlier work
# [4] = system: SUM149 breast cancer cells; test: SUM149 orthotopic tumors in nude mice; type: in vivo
# From the text: In this study, the ability of tetrathiomolybdate (TM) to abrogate or retard the growth of tumors in the mammary pads of nude mice after orthotropic injection of human breast cancer cells was studied. The highly angiogenic inflammatory breast cancer cell line called SUM149 was selected for this study. Given its high propensity to form palpable tumors within 2 weeks of injection into the mammary of 80-100% of the nude mice injected, this cell line posed a stringent test of the ability of TM to impair tumor progression.
# Three groups of 5 nude mice each were set up in separate cages. Groups 2 and 3 received TM in the drinking water to average an intake of 1.2 mg/day/mouse, starting at day-7. Groups 1, 2, and 3 were injected on day 0 with 10^6 SUM149 breast cancer cells in the second thoracic mammary fat pad. On day 34, as no palpable tumors were noticeable in any of the mice in the treatment groups, TM was skipped on groups 2 and 3, and then TM was restarted on group 2at a dose of 0.6 mg/day/mouse, while TM was resumed at full dose (1.2 mg/mouse/day) in group 3.
# The developing tumors were measured approximately twice weekly, and the average of the product of the bi-dimensional perpendicular diameters for each group versus time was determined. The tumors in the control group grew relatively rapidly and all animals developed tumors. […] This dose decreases copper to approximately 10-20% of baseline levels. It is this degree of copper deficiency, well tolerated in both mice and humans, which appears to be required to inhibit tumor angiogenesis.
# [5] = system: metastatic solid tumors
# [6] = Stability in open Petri dishes at room temperature (activity over time); details: for percentage activity: open Petri dishes at room temperature
# From the text: FIG. 4. […] Stability of each compound was studied under conditions that exacerbate instability, i.e. the drugs were in open Petri dishes at room temperature. The percentage activity is plotted as a function of time in days.
# This study was done under conditions that exacerbate instability, ie. the drugs were in open Petri dishes at room temperature.
# [7] = system: MML cells (prostate cancer) and breast cancer cells
# [8] = Open label study of TM for initial treatment of Wilson's disease; type: in vivo, human
# From the text: The inventors have carried out an open label study of the use of TM for initial treatment of neurologically presenting Wilson's disease patients for the past several years. The inventors have developed both a spectrophotometric and bioassay for the activity of the drug, to evaluate stability, and assure potency of the drug being administered (Brewer et al., 1991a; Brewer et al., 1994b). The drug slowly loses potency when exposed to air.
# The inventors have now treated a total of 51 Wilson's disease patients with TM, all of whom presented with neurological or psychiatric disease, in an open label study. These patients were all diagnosed by standard criteria. […] Some of them were treated briefly with other agents prior to this trial. Two patients had psychiatric but not neurological symptoms.
# With three exceptions in the earliest part of the study, all patients received a dose of 20 mg tid with meals, or qid with three meals and a snack. Thus, the only difference between a patient receiving 120 mg and 140 mg total dose is that the former was receiving 20 mg tid, or 60 mg, with meals, and the latter was receiving 20 mg qid, or 80 mg with meals plus a snack. The rest of the total daily dose was divided up into three equal doses and given between meals.
# [9] = Stability in moist heated air; type: physicochemical
# [10] = cited from earlier work
# [11] = cited from earlier work; remark: listed apart in the source
# [12] = system: breast cancer cells; test: Human breast cancer xenograft growth in athymic nude mice; type: in vivo; details: TM 1 mg/day; TP-TM 1 mg/day and 1.5 mg/day; p<0.01 vs control
# Experimental: FIG. 5. […] 10^6 breast cancer cells were injected in the mammary fat pad of 4 groups of athymic, nude mice (5 mice per group). Control mice received no treatment.
# In this study, 10^6 breast cancer cells were injected in the mammary fat pad of 4 groups of athymic, nude mice (5 mice per group). Control mice received no treatment.
# [13] = ½ dose of TM (0.6 mg/day/mouse)
# [14] = among the seven patients with anemia
substance,measurement,setting,value
tetrathiomolybdate [TM],stability in capsules,[1],stable in capsules for several months at room temperature
same,TM-treated mice developing clinically overt tumors,"[2]; 0.5-1.0 mg TM by gavage daily from 100 days of age, median follow-up 260 days",none
same,ceruloplasmin (Cp) in treatment group,[2]; 0.5-1.0 mg TM daily,below 40 % of baseline
same,outcome at higher doses,[2]; 1.25-1.5 mg TM,died after 1-3 weeks of therapy
same,shrinkage of well established tumors (>1.5 cm),"[2]; 3 control animals treated, 2/3 cases",25% and 50%
same,vascularization of micro-tumors in mammary glands,"[2]; TM-treated mice, microscopic analyses",none of the micro-tumors of the treated mice were vascularized
same,"maximum tolerated dose (MTD), prolonged treatment","[2]; adult mice, average weight 32 grams",1.0 mg/day
same,anemia,[2]; copper (Cp) decreased to below 40% of baseline,no anemia observed
same,clinically overt toxicity,[2]; copper levels decreased to 10% of baseline,no clinically overt toxicity
same,time to clinically overt mammary tumors after release from treatment,[2]; cross-over group previously disease-free,≤ 18 days
same,efficacy in LEC rats,[3],very effective
same,palpable tumors in treatment groups,[4]; TM 1.2 mg/day/mouse in drinking water from day -7,no tumors were palpable until TM was skipped on day 34
same,copper level,[4]; full dose TM 1.2 mg/day/mouse,10-20 % of baseline levels
same,tumor growth after day 34,[4]; full dose TM 1.2 mg/day/mouse,only very small tumors have grown
same,decrease of copper levels,[4]; [13],50%
same,tumor growth after day 34,[4]; [13],the tumors grew more rapidly
same,speed of reducing Cp level to <20%,[5]; 20 mg tid with meals plus single 60 mg between meals vs 20 mg tid with and 20 mg tid between meals,more rapidly
same,mean time to 50% reduction of Cp,"[5]; 90, 105, 120 mg/day",30 days
same,median time to Cp 50% of baseline,"[5]; 90, 105, 120 mg/day",28 days
same,level III dose outcome,[5]; TM 120 mg/day,"effective in reaching the target Cp, without added toxicity"
same,time for further reduction to Cp levels of 5-10 mg/dl,[5]; after reaching 50% of baseline,20 to 30 days
same,lung lesions in two patients with stable disease,[5]; at target Cp for 120 and 49 days,complete disappearance of some lung lesions and decrease in size of other lung lesions
same,additional toxicities with long-term maintenance,"[5]; human, in vivo",No additional toxicities of any type were observed
same,burping,"[5]; human, in vivo","Several patients experienced transient, occasional sulphur-smelling burping"
same,mild (greater than 80% of baseline Hct) reversible anemia,"[5]; human, in vivo",4 patients
same,only drug-related toxicity observed,"[5]; human, in vivo",mild anemia in one patient
same,time for hematocrit to recover after stopping the drug,"[5]; human, in vivo",5 to 7 days
same,time to rapid rise in Cp after TM discontinued,"[5]; human, in vivo",≤ 48 h
same,toxicities at Cp levels at or above 20% of baseline,"[5]; human, in vivo","no cardiac, pulmonary, GI, renal, hepatic, hematologic, infectious, skin, mucosal, or neurologic toxicities observed"
same,treated patients maintained at target Cp for more than 90 days,"[5]; human, in vivo",39%
same,patients with serum Cp lowered to 50% of baseline,[5]; initial TM 90 to 120 mg per day,17 out of 18 patients
same,duration of stable disease on TM treatment,"[5]; one patient, previously untreated metastatic breast cancer",over 6 months
same,decrease in blood flow to tumor mass (3D-ultrasound),"[5]; rib metastasis of renal cell carcinoma, approximately 8 weeks after target copper deficiency",4.4 fold
same,half life,[6],about 40 days
same,percentage activity,[6]; Day 0,100
same,percentage activity,[6]; Day 45,44
same,percentage activity,[6]; Day 148,9
same,percentage activity,[6]; Day 211,0
same,effective decoppering serum concentration relative to threshold lethal level for cells (fold lower),[7],100-500 fold
same,cases of reversible anemia,"[8]; 45 patients, eight weeks TM as initial therapy",11.1%
same,patients with reversible anemia/bone marrow depression,[8]; 51 patients treated,seven
same,patients with reduction in platelet count,[8]; [14],Three
same,patients with reduction in white blood cell count,[8]; [14],four
same,overtreatment,[8]; dose of 180 mg/day or over,6 of 37 patients
same,overtreatment,[8]; dose of 150 or lower,1 of 13 patients
same,time to close the plasma copper-molybdenum gap (free copper to zero),[8]; first patient,16 days
same,"patients with elevation of transaminase values (AST, ALT)",[8]; in vivo,four
same,quantitative speech exam scores,[8]; initial 8 weeks of TM therapy,No patient shows significant (more than 2.0 units) reduction in scores
same,average fall in hemoglobin,[8]; the seven patients with anemia,3.4 g %
same,patients with significant neurological worsening (change of more than 5 units),[8]; weeks of TM administration,4 % of the sample
same,increase of loss of activity in moist heated air over ambient conditions,[9],about 10 fold
same,potency retained in gelatin capsules,[10]; eight weeks,at least 90%
same,stability of bulk drug,[10]; under argon,stable for several years under argon
same,tolerance of TM injections,"[11]; IV 50 or 100 mg 2x weekly, copper loaded sheep",tolerated up to 22 injections of TM without clinical problems
same,adverse side effects in commercial sheep flocks,[11]; over 400 animals treated,no adverse side effects
same,tumor growth curves versus control animals,[12],effectively inhibiting tumor growth
